Test results from ChEMBL document CHEMBL5365531, “Structure-Activity Relationship Studies of SARS-CoV-2 Main Protease Inhibitors Containing 4-Fluorobenzothiazole-2-carbonyl Moieties” (J Med Chem, 2023).

Columns and labels:
[1] = Mutagenicity in Salmonella typhimurium TA1537 assessed as fold increase in number of revertants at 0.152 to 333 ug incubated in presence of S9 fraction by micro-Ames test relative to control; format: toxicity, subcellular, Salmonella enterica subsp. enterica serovar Typhimurium; details: dose 0.152-333 µg
SARS-CoV-2 [2] = assay: Antiviral activity against SARS-CoV-2 hCoV-19/Japan/TKYS02037/2022 (omicron BA.2) infected in Vero E6 cells preincubated with cells for 1 day followed by viral infection and measured after 3 days by qRT-PCR analysis; format: functional, organism-based; details: Severe acute respiratory syndrome coronavirus 2, hCoV-19/Japan/TKYS02037/2022 (omicron BA.2), Vero C1008
[3] = Cytotoxicity against human A549-hACE2-TMPRSS2 cells; format: toxicity, cell-based
[4] = Cytotoxicity against African green monkey Vero E6 cells in presence of P-glycoprotein inhibitor, CP100356; format: toxicity, cell-based, Vero C1008; details: chlorocebus sabaeus, with CP100356 (P-glycoprotein inhibitor)
[5] = Mutagenicity in Salmonella typhimurium TA98 assessed as fold increase in number of revertants at 0.152 to 333 ug incubated in absence of S9 fraction by micro-Ames test relative to control; format: toxicity, Salmonella enterica subsp. enterica serovar Typhimurium; details: in vivo; dose 0.152-333 µg
[6] = Cytotoxicity against human HeLa cells expressing ACE2 and TMPRSS2; format: toxicity, cell-based
[7] = Mutagenicity in Salmonella typhimurium TA1535 assessed as inhibition of bacterial growth at 0.152 to 333 ug incubated in presence of S9 fraction by micro-Ames test; format: toxicity, subcellular, Salmonella enterica subsp. enterica serovar Typhimurium; details: dose 0.152-333 µg
[8] = Oral bioavailability in PXB mouse at 10 mg/kg measured for 24 hrs; format: ADME, organism-based; details: in vivo
[9] = Cytotoxicity against human HepG2 cells; format: toxicity, cell-based
[10] = Mutagenicity in Salmonella typhimurium TA1535 assessed as fold increase in number of revertants at 0.152 to 333 ug incubated in presence of S9 fraction by micro-Ames test relative to control; format: toxicity, subcellular, Salmonella enterica subsp. enterica serovar Typhimurium; details: dose 0.152-333 µg
SARS-CoV-2 [11] = assay: Antiviral activity against SARS-CoV-2 JPN/TY/WK-521 infected in Vero E6 cells assessed as fold change preincubated with cells for 1 day followed by viral infection and measured after 3 days by qRT-PCR analysis relative to 7-fluoro-N-((S)-1-(((S)-1-(4-fluorobenzo[d]thiazol-2-yl)-1-oxo-3-((S)-2-oxopyrrolidin-3-yl)propan-2-yl)amino)-3,3-dimethyl-1-oxobutan-2-yl)-4-methoxy-1H-indole-2-carboxamide; format: functional, Severe acute respiratory syndrome coronavirus 2; details: time 4 day
MT2 = assay: Cytotoxicity against human MT2 cells assessed as reduction in cell viability at 0.4 uM incubated for 12 days by CCK-8 assay; format: toxicity, cell-based; details: mt2, 288 h, time 12 day
PBMC = assay: Cytotoxicity against human PBMC cells assessed as reduction in cell viability at 0.4 uM incubated for 12 days by CCK-8 assay; format: toxicity, cell-based; details: 288 h, time 12 day
[12] = Mutagenicity in Escherichia coli WP2uvrA assessed as fold increase in number of revertants at 0.152 to 333 ug incubated in presence of S9 fraction by micro-Ames test relative to control; format: toxicity, subcellular; details: dose 0.152-333 µg
[13] = Mutagenicity in Salmonella typhimurium TA100 assessed as inhibition of bacterial growth at 0.152 to 333 ug incubated in absence of S9 fraction by micro-Ames test; format: toxicity, Salmonella enterica subsp. enterica serovar Typhimurium; details: in vivo; dose 0.152-333 µg
[14] = Mutagenicity in Escherichia coli WP2uvrA assessed as fold increase in number of revertants at 0.152 to 333 ug incubated in absence of S9 fraction by micro-Ames test relative to control; format: toxicity; details: in vivo; dose 0.152-333 µg
SARS-CoV-2 [15] = assay: Antiviral activity against SARS-CoV-2 JPN/TY/WK-521 infected in Vero E6 cells preincubated with cells for 1 day followed by viral infection and measured after 3 days by qRT-PCR analysis; format: functional, organism-based; details: Severe acute respiratory syndrome coronavirus 2, JPN/TY/WK-521, Vero C1008
[16] = Mutagenicity in Escherichia coli WP2uvrA assessed as inhibition of bacterial growth at 0.152 to 333 ug incubated in absence of S9 fraction by micro-Ames test; format: toxicity; details: in vivo; dose 0.152-333 µg
[17] = Mutagenicity in Salmonella typhimurium TA1535 assessed as inhibition of bacterial growth at 0.152 to 333 ug incubated in absence of S9 fraction by micro-Ames test; format: toxicity, Salmonella enterica subsp. enterica serovar Typhimurium; details: in vivo; dose 0.152-333 µg
SARS-CoV-2 [18] = assay: Antiviral activity against SARS-CoV-2 infected in Vero E6 cells preincubated with cells for 1 day in absence of HCl followed by viral infection and measured after 3 days by qRT-PCR analysis; format: functional, organism-based; details: Severe acute respiratory syndrome coronavirus 2, Vero C1008
[19] = Mutagenicity in Salmonella typhimurium TA1537 assessed as inhibition of bacterial growth at 0.152 to 333 ug incubated in absence of S9 fraction by micro-Ames test; format: toxicity, Salmonella enterica subsp. enterica serovar Typhimurium; details: in vivo; dose 0.152-333 µg
[20] = Mutagenicity in Salmonella typhimurium TA98 assessed as inhibition of bacterial growth at 0.152 to 333 ug incubated in absence of S9 fraction by micro-Ames test; format: toxicity, Salmonella enterica subsp. enterica serovar Typhimurium; details: in vivo; dose 0.152-333 µg
SARS-CoV-2 [21] = assay: Antiviral activity against SARS-CoV-2 infected in Vero E6 cells preincubated with cells for 1 day in presence of HCl treated compound followed by viral infection and measured after 3 days by qRT-PCR analysis; format: functional, organism-based; details: Severe acute respiratory syndrome coronavirus 2, Vero C1008
[22] = Cytotoxicity against African green monkey Vero E6 cells incubated for 3 days by WST-8 assay; format: toxicity, cell-based, Vero C1008; details: chlorocebus sabaeus, time 3 day
[23] = Mutagenicity in Salmonella typhimurium TA100 assessed as fold increase in number of revertants at 0.152 to 333 ug incubated in presence of S9 fraction by micro-Ames test relative to control; format: toxicity, subcellular, Salmonella enterica subsp. enterica serovar Typhimurium; details: dose 0.152-333 µg
[24] = Mutagenicity in Salmonella typhimurium TA1535 assessed as fold increase in number of revertants at 0.152 to 333 ug incubated in absence of S9 fraction by micro-Ames test relative to control; format: toxicity, Salmonella enterica subsp. enterica serovar Typhimurium; details: in vivo; dose 0.152-333 µg
MOLT-4 = assay: Cytotoxicity against human MOLT-4 cells assessed as reduction in cell viability at 0.4 uM incubated for 12 days by CCK-8 assay; format: toxicity, cell-based; details: molt-4, 288 h, time 12 day
[25] = Mutagenicity in Salmonella typhimurium TA100 assessed as inhibition of bacterial growth at 0.152 to 333 ug incubated in presence of S9 fraction by micro-Ames test; format: toxicity, subcellular, Salmonella enterica subsp. enterica serovar Typhimurium; details: dose 0.152-333 µg
[26] = Mutagenicity in Salmonella typhimurium TA98 assessed as fold increase in number of revertants at 0.152 to 333 ug incubated in presence of S9 fraction by micro-Ames test relative to control; format: toxicity, subcellular, Salmonella enterica subsp. enterica serovar Typhimurium; details: dose 0.152-333 µg
[27] = Half life in PXB mouse at 10 mg/kg, po measured for 24 hrs; format: ADME, organism-based; details: in vivo
[28] = Half life in PXB mouse at 10 mg/kg, iv measured for 24 hrs; format: ADME, organism-based; details: in vivo
Vero C1008 = assay: Cytotoxicity against African green monkey Vero E6 cells infected with SARS-CoV-2 WK-521 upto 100 uM incubated for 3 days by immunostaining analysis; format: toxicity, cell-based; details: chlorocebus sabaeus, vero c1008, 72 h, time 3 day
[29] = Mutagenicity in Salmonella typhimurium TA1537 assessed as inhibition of bacterial growth at 0.152 to 333 ug incubated in presence of S9 fraction by micro-Ames test; format: toxicity, subcellular, Salmonella enterica subsp. enterica serovar Typhimurium; details: dose 0.152-333 µg
[30] = Mutagenicity in Salmonella typhimurium TA98 assessed as inhibition of bacterial growth at 0.152 to 333 ug incubated in presence of S9 fraction by micro-Ames test; format: toxicity, subcellular, Salmonella enterica subsp. enterica serovar Typhimurium; details: dose 0.152-333 µg
SARS-CoV-2 [31] = assay: Antiviral activity against SARS-CoV-2 assessed as fold change relative to YH-53; format: functional, Severe acute respiratory syndrome coronavirus 2
[32] = Mutagenicity in Salmonella typhimurium TA100 assessed as fold increase in number of revertants at 0.152 to 333 ug incubated in absence of S9 fraction by micro-Ames test relative to control; format: toxicity, Salmonella enterica subsp. enterica serovar Typhimurium; details: in vivo; dose 0.152-333 µg
[33] = Mutagenicity in Salmonella typhimurium TA1537 assessed as fold increase in number of revertants at 0.152 to 333 ug incubated in absence of S9 fraction by micro-Ames test relative to control; format: toxicity, Salmonella enterica subsp. enterica serovar Typhimurium; details: in vivo; dose 0.152-333 µg
SARS-CoV-2 [34] = assay: Antiviral activity against SARS-CoV-2 JPN/TY/WK-521 infected in Vero E6 cells assessed as inhibition of viral replication preincubated with cells for 1 day followed by viral infection and measured after 3 to 4 days by qRT-PCR analysis; format: functional, organism-based; details: Severe acute respiratory syndrome coronavirus 2, JPN/TY/WK-521, Vero C1008
[35] = Mutagenicity in Escherichia coli WP2uvrA assessed as inhibition of bacterial growth at 0.152 to 333 ug incubated in presence of S9 fraction by micro-Ames test; format: toxicity, subcellular; details: dose 0.152-333 µg

With `CC(C)(C)[C@H](NC(=O)C(F)(F)F)C(=O)N1C[C@H]2[C@@H]([C@H]1C(=O)N[C@@H](C[C@@H]1CCNC1=O)C(=O)c1nc3c(F)cccc3s1)C2(C)C` the “fold change (FC)” value [1] was > 2, the EC50 (SARS-CoV-2 [2]) was 48 nM and the CC50 [3] was > 100000 nM. The CC50 [4] was > 100000 nM, the “fold change (FC)” value [5] was > 2 and the CC50 [6] was > 100000 nM. The Activity [7] was “Non-Toxic”, the bioavailability [8] was 48% and the CC50 [9] was > 200000 nM. For the same compound, the “fold change (FC)” value [10] was > 2, the “fold change (FC)” value (SARS-CoV-2 [11]) was 0.057 and the Activity (MT2) was “Non-Toxic”. The Activity (PBMC) was “Non-Toxic”, the “fold change (FC)” value [12] was > 2 and the Activity [13] was “Non-Toxic”. For the same compound, the “fold change (FC)” value [14] was > 2, the EC50 (SARS-CoV-2 [15]) was 12 nM and the Activity [16] was “Non-Toxic”. For the same compound, the Activity [17] was “Non-Toxic”, the EC50 (SARS-CoV-2 [18]) was 74 nM and the Activity [19] was “Non-Toxic”. The Activity [20] was “Non-Toxic”, the EC50 (SARS-CoV-2 [21]) was 87 nM and the CC50 at 72 h [22] was > 100000 nM. The “fold change (FC)” value [23] was > 2, the “fold change (FC)” value [24] was > 2 and the Activity (MOLT-4) was “Non-Toxic”. For the same compound, the Activity [25] was “Non-Toxic”, the “fold change (FC)” value [26] was > 2 and the half-life [27] was 3.82 h. For the same compound, the half-life [28] was 1.25 h, the Activity (Vero C1008) was “Non-Toxic” and the Activity [29] was “Non-Toxic”. The Activity [30] was “Non-Toxic”, the “fold change (FC)” value (SARS-CoV-2 [31]) was 0.012 and the “fold change (FC)” value [32] was > 2. The “fold change (FC)” value [33] was > 2, the EC50 (SARS-CoV-2 [34]) was 30 nM and the Activity [35] was “Non-Toxic”.
